Measured values from patent publication US20260042764A1, “COMPOSITIONS AND METHODS FOR INHIBITION OF KRAS” (TheRas, Inc., priority 2022, published 2026).

Tests used:
[1] = target: T1, Avi-KRAS G12V (1-169) GppNHp/RAF1 RBD-3xFLAG (52-151) (Homo sapiens, UniProt P01116, G12V); test: Raf1-KRAS G12V-GppNHP disruption HTRF assay (Biological Example 1); type: binding
T1 construct: Avi-KRAS G12V (1-169)
How it was run: (§1)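 First, protein mix in Tris pH 7.5 buffer with NaCl, MgCl2, BSA, Tween and 10% DMSO is incubated 1 h at room temperature. Next, reagent mix is added and incubated a further 1 h at room temperature. Finally, HTRF is read and activity normalized to DMSO.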

[2] = target: T2, Avi-KRAS G12R (1-169) GppNHp/RAF1 RBD-3xFLAG (52-151) (Homo sapiens, UniProt P01116, G12R); test: Raf1-KRAS G12R-GppNHP disruption HTRF assay (Biological Example 1); type: binding
T2 construct: Avi-KRAS G12R (1-169)
How it was run: as §1

[3] = target: T3, Avi-KRAS G12D (2-169) GTP/RAF1 RBD-3xFLAG (51-131) (Homo sapiens, UniProt P01116, G12D); test: Raf1-KRAS G12D-GTP disruption HTRF assay (Biological Example 3); type: binding; details: KRAS G12D, GTP-loaded
T3 construct: Avi-KRAS G12D (2-169)
How it was run: (§2)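 HTRF PPI read-out (ex 320 nm, em 615 nm) after 1 h RT incubation with shaking; data as % activity vs DMSO (100%), IC50 from curve fit. Complex 50 nM, RBD reagent 75 nM; compound 30-0.005 μM, 3-fold.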

SW620 cells (KRAS G12V) = test: Cell-based pERK HTRF assay in SW620 cell (Biological Example 4)
How it was run: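 SW620 cells were treated for 4 h with compound in a 9-point half-log series from 1 μM top (0.25% DMSO), then lysed. Phospho-ERK was detected by HTRF with d2 and Eu cryptate antibodies after 4–24 h at room temperature, read at 615 nm emission.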

[4] = target: T4, Avi-KRAS G12V (2-169) GTP/RAF1 RBD-3xFLAG (51-131) (Homo sapiens, UniProt P01116, G12V); test: Raf1-KRAS G12V-GTP disruption HTRF assay (Biological Example 3); type: binding; details: KRAS G12V, GTP-loaded
T4 construct: Avi-KRAS G12V (2-169)
How it was run: as §2

[5] = target: T5, Avi-KRAS WT (1-169) GppNHp/RAF1 RBD-3xFLAG (52-151) (Homo sapiens, UniProt P01116); test: Raf1-KRAS WT-GppNHP disruption HTRF assay (Biological Example 1); type: binding
T5 construct: Avi-KRAS WT (1-169)
How it was run: as §1

[6] = Homo sapiens, SW-620, SW620 (KRAS G12V) cells
[7] = Homo sapiens, SW-620, SW620 (KRAS G12V) cells, pERK HTRF
[8] = KRAS G12V, GppNHp-loaded, Table 11
[9] = KRAS G12R, GppNHp-loaded, Table 11
[10] = KRAS WT, GppNHp-loaded, Table 11
[11] = KRAS G12V, GppNHp-loaded, class symbols
[12] = KRAS G12R, GppNHp-loaded, class symbols
[13] = Homo sapiens, SW-620, SW620 (KRAS G12V) cells, pERK HTRF, class symbols
[14] = KRAS WT, GppNHp-loaded, class symbols

T5 sequence (P01116 1-169 isoform P01116-2): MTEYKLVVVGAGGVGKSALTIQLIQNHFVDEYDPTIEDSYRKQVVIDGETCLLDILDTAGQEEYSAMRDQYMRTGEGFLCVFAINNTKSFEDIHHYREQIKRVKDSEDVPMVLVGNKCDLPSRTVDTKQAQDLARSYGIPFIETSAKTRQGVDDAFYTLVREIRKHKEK
T3 sequence (P01116 2-169 isoform P01116-2 G12D): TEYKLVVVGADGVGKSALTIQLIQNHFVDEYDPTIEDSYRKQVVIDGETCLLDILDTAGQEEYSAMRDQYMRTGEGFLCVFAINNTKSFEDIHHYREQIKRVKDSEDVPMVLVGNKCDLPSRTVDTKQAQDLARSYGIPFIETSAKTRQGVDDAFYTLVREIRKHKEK
T2 sequence (P01116 1-169 isoform P01116-2 G12R): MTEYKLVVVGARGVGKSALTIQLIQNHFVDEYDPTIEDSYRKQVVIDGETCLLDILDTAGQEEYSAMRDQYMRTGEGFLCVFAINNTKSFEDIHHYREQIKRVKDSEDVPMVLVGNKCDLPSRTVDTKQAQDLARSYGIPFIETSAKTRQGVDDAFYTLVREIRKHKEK
T4 sequence (P01116 2-169 isoform P01116-2 G12V): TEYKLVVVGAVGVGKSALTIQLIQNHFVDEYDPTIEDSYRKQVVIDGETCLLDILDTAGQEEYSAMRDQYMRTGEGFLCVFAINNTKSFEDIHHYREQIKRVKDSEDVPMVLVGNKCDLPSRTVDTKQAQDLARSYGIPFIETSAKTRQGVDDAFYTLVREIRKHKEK
T1 sequence (P01116 1-169 isoform P01116-2 G12V): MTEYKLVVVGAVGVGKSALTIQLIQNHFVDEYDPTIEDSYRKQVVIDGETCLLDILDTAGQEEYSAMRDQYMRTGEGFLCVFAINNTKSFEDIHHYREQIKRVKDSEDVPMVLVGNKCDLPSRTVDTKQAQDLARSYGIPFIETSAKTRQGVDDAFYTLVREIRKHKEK

SMILES	IC50 ([1]; KRAS G12V-GppNHp/RAF1 RBD HTRF) [nM]	IC50 ([2]; KRAS G12R-GppNHp/RAF1 RBD HTRF) [nM]	IC50 [3] [nM]	IC50 (SW620 cells (KRAS G12V); [6]) [nM]	IC50 (SW620 cells (KRAS G12V); SW620 (KRAS G12V) cells, pERK HTRF) [nM]	IC50 [4] [nM]	IC50 ([5]; KRAS WT-GppNHp/RAF1 RBD HTRF) [nM]	IC50 (SW620 cells (KRAS G12V); [7]) [nM]	IC50 [1, 11] [nM]	IC50 [2, 12] [nM]	IC50 (SW620 cells (KRAS G12V); [13]) [nM]	IC50 [5, 14] [nM]	IC50 [1, 8] [nM]	IC50 [2, 9] [nM]	IC50 [5, 10] [nM]
C[C@@H]1[C@H](N(C)c2nc(OC[C@@]34CCCN3C[C@H](F)C4)nc3c(F)c(-c4ccc(F)c5sc(N)c(C#N)c45)c(C(F)(F)F)cc23)CCN1C(=O)C1CC1 (atropisomer, axis not shown) [Compound 333]	100 to 1000	< 100	100 to 1000	< 100	< 100	100 to 1000	< 100	–	–	–	–	–	–	–	–
CCN(c1nc(OC[C@@]23CCCN2C[C@H](F)C3)nc2c(F)c(-c3ccc(F)c4sc(N)c(C#N)c34)c(C(F)(F)F)cc12)[C@H]1CCN(C(=O)OC)C1 [Compound 394]	< 100	< 100	100 to 1000	< 100	–	100 to 1000	< 100	< 100	–	–	–	–	–	–	–
N#Cc1c(N)sc2c(F)ccc(-c3c(C(F)(F)F)cc4c(N5CC6CC(C5)O6)nc(OC[C@@]56CCCN5C[C@H](F)C6)nc4c3F)c12 [Compound 145]	–	–	100 to 1000	< 100	–	1000 to 10000	–	< 100	–	–	–	–	100 to 1000	100 to 1000	100 to 1000
CCN(c1nc(OC[C@@]23CCCN2C[C@H](F)C3)nc2c(F)c(-c3ccc(F)c4sc(N)c(C#N)c34)c(C(F)(F)F)cc12)[C@@H]1CCN(C(C)=O)C1 [Compound 268]	–	–	100 to 1000	< 100	–	100 to 1000	–	< 100	–	–	–	–	100 to 1000	< 100	< 100
CN(C)C(=O)c1cc2n(n1)CCN(c1nc(OC[C@@]34CCCN3C[C@H](F)C4)nc3c(F)c(-c4ccc(F)c5sc(N)c(C#N)c45)c(C(F)(F)F)cc13)C2 [Compound 355]	100 to 1000	100 to 1000	100 to 1000	< 100	–	100 to 1000	100 to 1000	< 100	–	–	–	–	–	–	–
N#Cc1c(N)sc2c(F)ccc(-c3c(C(F)(F)F)cc4c(N5CC6CC(C5)O6)nc(OC[C@@]56CCCN5C[C@H](F)C6)nc4c3F)c12 (single isomer, unassigned) [Compound 275]	–	–	100 to 1000	< 100	–	100 to 1000	–	< 100	–	–	–	–	100 to 1000	100 to 1000	100 to 1000
CCN(c1nc(OC[C@@]23CCCN2C[C@H](F)C3)nc2c(F)c(-c3ccc(F)c4sc(N)c(C#N)c34)c(C(F)(F)F)cc12)[C@H]1CCN(C(=O)C2CC2(F)F)C1 (stereo partly shown) [Compound 581]	–	–	≤ 100	< 100	–	≤ 100	–	–	< 100	< 100	< 100	< 100	–	–	–
CCN(c1nc(OC[C@@]23CCCN2C[C@H](F)C3)nc2c(F)c(-c3ccc(F)c4sc(N)c(C#N)c34)c(C(F)(F)F)cc12)[C@H]1C[C@H]2CCC(=O)N2C1 (atropisomer, axis not shown; (aR)) [Compound 573, 2-amino-4-((S)-4-(ethyl((2S,7aR)-5-oxohexahydro-1H-pyrrolizin-2-yl)amino)-8-fluoro-2-(((2R,7aS)-2-fluorotetrahydro-1H-pyrrolizin-7a(5H)-yl)methoxy)-6-(trifluoromethyl)quinazolin-7-yl)-7-fluorobenzo[b]thiophene-3-carbonitrile]	–	–	≤ 100	< 100	–	≤ 100	–	–	< 100	< 100	< 100	< 100	–	–	–
[2H]C1([2H])O[C@@H]2C[C@H]1N(c1nc(OC[C@@]34CCCN3C[C@H](F)C4)nc3c(F)c(-c4ccc(F)c5sc(N)c(C#N)c45)c(C(F)(F)F)cc13)C2 [Compound 371]	100 to 1000	100 to 1000	100 to 1000	< 100	–	1000 to 10000	100 to 1000	< 100	–	–	–	–	–	–	–

Second part, led by results:

IC50 ([1]; KRAS G12V-GppNHp/RAF1 RBD HTRF) [nM]	IC50 ([2]; KRAS G12R-GppNHp/RAF1 RBD HTRF) [nM]	IC50 [3] [nM]	IC50 (SW620 cells (KRAS G12V); [6]) [nM]	IC50 (SW620 cells (KRAS G12V); SW620 (KRAS G12V) cells, pERK HTRF) [nM]	IC50 [4] [nM]	IC50 ([5]; KRAS WT-GppNHp/RAF1 RBD HTRF) [nM]	IC50 (SW620 cells (KRAS G12V); [7]) [nM]	IC50 [1, 11] [nM]	IC50 [2, 12] [nM]	IC50 (SW620 cells (KRAS G12V); [13]) [nM]	IC50 [5, 14] [nM]	SMILES	IC50 [1, 8] [nM]	IC50 [2, 9] [nM]	IC50 [5, 10] [nM]
–	–	100 to 1000	< 100	–	100 to 1000	–	–	< 100	< 100	< 100	100 to 1000	N#Cc1c(N)sc2c(F)ccc(-c3c(C(F)(F)F)cc4c(N5CCn6nc(C(=O)N7CCOCC7)cc6C5)nc(OCC56CCCN5CC(F)C6)nc4c3F)c12 (stereo not shown) [Compound 646]	–	–	–
–	–	≤ 100	< 100	–	≤ 100	–	–	< 100	< 100	< 100	< 100	CCN(c1nc(OC[C@@]23CCCN2C[C@H](F)C3)nc2c(F)c(-c3ccc(F)c4sc(N)c(C#N)c34)c(C(F)(F)F)cc12)[C@H]1CCN(C(=O)C2C[C@@H]2F)C1 (stereo partly shown) [Compound 692]	–	–	–
–	–	≤ 100	< 100	–	≤ 100	–	–	< 100	< 100	< 100	< 100	CCN(c1nc(OC[C@@]23CCCN2C[C@H](F)C3)nc2c(F)c(-c3ccc(F)c4sc(N)c(C#N)c34)c(C(F)(F)F)cc12)[C@H]1CCN(C(=O)CC(F)F)C1 (atropisomer, axis not shown) [Compound 611]	–	–	–
–	–	100 to 1000	< 100	–	100 to 1000	–	–	< 100	< 100	< 100	< 100	CCN(c1nc(OC[C@@]23CCCN2C[C@H](F)C3)nc2c(F)c(-c3ccc(F)c4sc(N)c(C#N)c34)c(C(F)(F)F)cc12)[C@H]1CCN(C(=O)c2ccns2)C1 (atropisomer, axis not shown) [Compound 726]	–	–	–
–	–	100 to 1000	< 100	–	100 to 1000	–	–	< 100	< 100	< 100	< 100	CCN1C[C@@H](N(C)c2nc(OC[C@@]34CCCN3C[C@H](F)C4)nc3c(F)c(-c4ccc(F)c5sc(N)c(C#N)c45)c(C(F)(F)F)cc23)CC1=O (atropisomer, axis not shown) [Compound 636]	–	–	–
–	–	≤ 100	100 to 1000	–	≤ 100	–	–	< 100	< 100	< 100	< 100	C/C=C/C(=O)N1CC[C@H](N(CC)c2nc(OC[C@@]34CCCN3C[C@H](F)C4)nc3c(F)c(-c4ccc(F)c5sc(N)c(C#N)c45)c(C(F)(F)F)cc23)C1 (atropisomer, axis not shown) [Compound 674]	–	–	–
–	–	100 to 1000	< 100	–	100 to 1000	–	–	100 to 1000	100 to 1000	< 100	100 to 1000	Cc1c(C(=O)N2CCOCC2)nn2c1CN(c1nc(OCC34CCCN3CC(F)C4)nc3c(F)c(-c4ccc(F)c5sc(N)c(C#N)c45)c(C(F)(F)F)cc13)CC2 (stereo not shown) [Compound 741]	–	–	–
–	–	100 to 1000	< 100	–	100 to 1000	–	–	< 100	< 100	< 100	< 100	CCN(c1nc(OC[C@@]23CCCN2C[C@H](F)C3)nc2c(F)c(-c3ccc(F)c4sc(N)c(C#N)c34)c(C(F)(F)F)cc12)[C@H]1CCN(C(=O)N2CCN(C(C)=O)CC2)C1 (atropisomer, axis not shown) [Compound 619]	–	–	–
–	–	100 to 1000	< 100	–	100 to 1000	–	–	< 100	< 100	< 100	< 100	CCN(c1nc(OC[C@@]23CCCN2C[C@H](F)C3)nc2c(F)c(-c3ccc(F)c4sc(N)c(C#N)c34)c(C(F)(F)F)cc12)[C@H]1C[C@H](C)N(C(=O)OC)C1 (atropisomer, axis not shown) [Compound 704]	–	–	–
–	–	≤ 100	< 100	–	≤ 100	–	–	< 100	< 100	< 100	< 100	CCN(c1nc(OC[C@@]23CCCN2C[C@H](F)C3)nc2c(F)c(-c3ccc(F)c4sc(N)c(C#N)c34)c(C(F)(F)F)cc12)[C@H]1C[C@H](C)N(C(=O)N2CC(OC)C2)C1 (atropisomer, axis not shown) [Compound 764]	–	–	–
